Laboratory results published in patent publication US20100036088A1, “Selective poly-N-substituted glycine antibiotics” (priority 2008, published 2010).
Converted amounts (≈) assume the structure as drawn. “And” between values parts separate entries of the source, which are not always exact repeats. Equal entries are not always repeated. Where two headings read alike, the source gives them in different places. Each block holds one compound with its values, some of them ahead of it. Square brackets hold non-standard residues; d marks the D form. Peptide text beside a SMILES is read from it. Nspe = C[C@H](NCC(=O)O)c1ccccc1; Nphe = O=C(O)CNCc1ccccc1; Nlys = NCCCCNCC(=O)O

Experiments:
Format in all cases: cell-based
B. subtilis (ATCC 6633) = test system: B. subtilis (ATCC 6633)
How it was run: (§1)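 MICs by broth microdilution per CLSI M7-A6 in cation-adjusted Mueller-Hinton broth, using 2:1 serial dilutions of peptoid and a bacterial inoculum of 1×10^6 CFU/mL. Values reproducible over three experiments, each with two parallel trials.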

[1] = test system: Staphylococcus aureus NRS120
Experimental: (§2) Antibacterial assays. MICs were determined according to CLSI M7-A6 protocols in a 96-well microtiter plate. In test wells, 50 μL bacterial inoculum (5×10^5 CFU/ml) in Mueller-Hinton broth (MHB) was added to 50 μL peptoid solution in MHB (prepared by 1:2 serial dilutions). Positive controls contained 50 μL inoculum and 50 μL MHB without peptoid. […] MIC values reported were reproducible between three independent experimental replicates, each consisting of two parallel trials. Broad-spectrum antimicrobial susceptibility testing was performed against BSL2 pathogens by Nova Biologicals, Inc. (Conroe, Tex.).
(§3) Broad-spectrum antibacterial assays. MICs of compounds were determined by microdilution procedure in Mueller-Hinton broth (MHB) in accordance with CLSI M7-A6 protocols in a manner similar to that described for the screen antibacterial assays. Inoculated microtiter plates were incubated at 35° C. for 24 hours prior to the result being recorded. Four ATCC strains that were used as standards are recommended by CLSI: Pseudomonas aeruginosa ATCC 27853, Escherichia coli ATCC 25922, Staphylococcus aureus ATCC 29213 and Enterococcus faecalis ATCC 29212. Other strains from the ATCC collection include Proteus vulgaris ATCC 49132, Proteus mirabilis ATCC 35659, Klebsiella pneumoniae ATCC 33495, Enterobacter aerogenes ATCC 35029 and Serratia marcescens ATCC 13880. S. aureus NRS100 (COL) is a well characterized methicillian-resistant S. aureus (MRSA) strain. The strains S. aureus VAN1 and S. aureus VAN2, vancomycin-resistant MRSA strains that were isolated in Michigan and Pennsylvania, were the first vancomycin-resistant strains clinically isolated. S. aureus NRS119 and S. aureus NRS120 are linezolid-resistant isolates from the Network on Antimicrobial Resistance in S. aureus (NARSA) collection. E. faecalis 99 and E. faecium 106 are vancomycin-resistant enterococcal strains.

[2] = test system: Escherichia coli ATCC 25922
Experimental: as §2, §3

[3] = test system: Staphylococcus aureus NRS100 (COL)
Experimental: as §2, §3

Enterococcus faecalis 99 = test system: Enterococcus faecalis 99
Experimental: as §2, §3

[4] = test system: Serratia marcescens ATCC 13880
Experimental: as §2, §3

[5] = test system: Enterococcus faecalis ATCC 29212
Experimental: as §2, §3

[6] = test system: Proteus vulgaris ATCC 49132
Experimental: as §2, §3

[7] = test system: Proteus mirabilis ATCC 35659
Experimental: as §2, §3

[8] = test system: Staphylococcus aureus VAN1
Experimental: as §2, §3

[9] = test system: Staphylococcus aureus VAN2
Experimental: as §2, §3

[10] = test system: Pseudomonas aeruginosa ATCC 27853
Experimental: as §2, §3

[11] = test system: Klebsiella pneumoniae ATCC 33495
Experimental: as §2, §3

[12] = test system: Enterobacter aerogenes ATCC 35029
Experimental: as §2, §3

Enterococcus faecium 106 = test system: Enterococcus faecium 106
Experimental: as §2, §3

[13] = test system: Staphylococcus aureus ATCC 29213
Experimental: as §2, §3

[14] = test system: Staphylococcus aureus NRS119
Experimental: as §2, §3

E. coli (ATCC 35218) = test system: E. coli (ATCC 35218)
How it was run: as §1

[15] = Table 7A, MRSA, vancomycin-resistant

B. subtilis MIC (B. subtilis (ATCC 6633); ATCC 6633): 0.78 µM
MIC Staphylococcus aureus NRS120 ([1]; NRS120): 9.4 µM (≈ 16 µg/mL)
MIC S. aureus NRS120 ([1]; Table 7A, linezolid-resistant): 16 µg/mL (≈ 9.37 µM)
MIC Escherichia coli ATCC 25922 ([2]; ATCC 25922): 9.4 µM (≈ 16 µg/mL)
MIC E. coli ATCC 25922 ([2]; Table 7A): 16 µg/mL (≈ 9.37 µM)
MIC Staphylococcus aureus NRS100 (COL) ([3]; NRS100 (COL)): 4.7 µM (≈ 8.02 µg/mL)
MIC S. aureus NRS100 (COL) ([3]; Table 7A, MRSA): 8 µg/mL (≈ 4.69 µM)
MIC Enterococcus faecalis 99 (Enterococcus faecalis 99; 99): 37.5 µM (≈ 64 µg/mL)
MIC E. faecalis 99 (Enterococcus faecalis 99; Table 7A): 64 µg/mL (≈ 37.5 µM)
MIC S. marcescens ATCC 13880 ([4]; ATCC 13880): >128 µg/mL
MIC Serratia marcescens ATCC 13880 ([4]; ATCC 13880): >75 µM
MIC Enterococcus faecalis ATCC 29212 ([5]; ATCC 29212): 9.4 µM (≈ 16 µg/mL)
MIC E. faecalis ATCC 29212 ([5]; Table 7A): 16 µg/mL (≈ 9.37 µM)
MIC Proteus vulgaris ATCC 49132 ([6]; ATCC 49132): 18.7 µM (≈ 31.9 µg/mL)
MIC P. vulgaris ATCC 49132 ([6]; Table 7A): 32 µg/mL (≈ 18.7 µM)
MIC P. mirabilis ATCC 35659 ([7]; ATCC 35659): >128 µg/mL
MIC Proteus mirabilis ATCC 35659 ([7]; ATCC 35659): >75 µM
MIC S. aureus VAN1 [8, 15]: 8 µg/mL (≈ 4.69 µM)
MIC Staphylococcus aureus VAN1 ([8]; VAN1): 4.7 µM (≈ 8.02 µg/mL)
MIC S. aureus VAN2 [9, 15]: 8 µg/mL (≈ 4.69 µM)
MIC Staphylococcus aureus VAN2 ([9]; VAN2): 4.7 µM (≈ 8.02 µg/mL)
MIC Pseudomonas aeruginosa ATCC 27853 ([10]; ATCC 27853): 9.4 µM (≈ 16 µg/mL)
MIC P. aeruginosa ATCC 27853 ([10]; Table 7A): 16 µg/mL (≈ 9.37 µM)
MIC Klebsiella pneumoniae ATCC 33495 ([11]; ATCC 33495): 4.7 µM (≈ 8.02 µg/mL)
MIC K. pneumoniae ATCC 33495 ([11]; Table 7A): 8 µg/mL (≈ 4.69 µM)
MIC Enterobacter aerogenes ATCC 35029 ([12]; ATCC 35029): 75.0 µM (≈ 128 µg/mL)
MIC E. aerogenes ATCC 35029 ([12]; Table 7A): 128 µg/mL (≈ 75 µM)
MIC Enterococcus faecium 106 (Enterococcus faecium 106; 106): 2.3 µM (≈ 3.93 µg/mL)
MIC E. faecium 106 (Enterococcus faecium 106; Table 7A): 4 µg/mL (≈ 2.34 µM)
MIC Staphylococcus aureus ATCC 29213 ([13]; ATCC 29213): 4.7 µM (≈ 8.02 µg/mL)
MIC S. aureus ATCC 29213 ([13]; Table 7A): 8 µg/mL (≈ 4.69 µM)
MIC Staphylococcus aureus NRS119 ([14]; NRS119): 9.4 µM (≈ 16 µg/mL)
MIC S. aureus NRS119 ([14]; Table 7A, linezolid-resistant): 16 µg/mL (≈ 9.37 µM)
Structure (SMILES): NCCCCNCC(=O)N(CC(=O)N(CC(=O)N(CCCCN)CC(=O)N(CC(=O)N(CC(=O)N(CCCCN)CC(=O)N(CC(=O)N(CC(=O)N(CCCCN)CC(=O)N(CC(=O)N(CC(N)=O)Cc1ccccc1)Cc1ccccc1)Cc1ccccc1)Cc1ccccc1)Cc1ccccc1)Cc1ccccc1)Cc1ccccc1)Cc1ccccc1 [1achiral, H-(Nlys-Npm-Npm)4-NH2] (H-[Nlys][Nphe][Nphe][Nlys][Nphe][Nphe][Nlys][Nphe][Nphe][Nlys][Nphe][Nphe]-NH2)

Structure (SMILES): C[C@@H](c1ccccc1)N(CC(N)=O)C(=O)CN(C(=O)CN(CCCCN)C(=O)CN(C(=O)CN(C(=O)CN(CCCCN)C(=O)CN(C(=O)CN(C(=O)CN(CCCCN)C(=O)CN(C(=O)CN(C(=O)CNCCCCN)[C@@H](C)c1ccccc1)[C@@H](C)c1ccccc1)[C@@H](C)c1ccccc1)[C@@H](C)c1ccccc1)[C@@H](C)c1ccccc1)[C@@H](C)c1ccccc1)[C@@H](C)c1ccccc1 [compound 1, H-(NLys-Nspe-Nspe)4-NH2] (H-[Nlys][Nspe][Nspe][Nlys][Nspe][Nspe][Nlys][Nspe][Nspe][Nlys][Nspe][Nspe]-NH2)
B. subtilis MIC (B. subtilis (ATCC 6633); Table 3, ATCC 6633, cation-adjusted MHB): 1.6 µM
B. subtilis MIC (B. subtilis (ATCC 6633); Table 6, ATCC 6633): 1.6 µM
E. coli MIC (E. coli (ATCC 35218); Table 3, ATCC 35218, cation-adjusted MHB): 6.3 µM
E. coli MIC (E. coli (ATCC 35218); Table 6, ATCC 35218): 6.25 µM and 6.3 µM
MIC Staphylococcus aureus NRS120 ([1]; Table 4, Gram +): 4.4 µM
MIC Escherichia coli ATCC 25922 ([2]; Table 4, Gram −): 2.2 µM (≈ 4 µg/mL)
MIC Staphylococcus aureus NRS100 (COL) ([3]; Table 4, Gram +): 2.2 µM
MIC Enterococcus faecalis 99 (Enterococcus faecalis 99; Table 4, vancomycin resistant): 4.4 µM (≈ 8.01 µg/mL)
MIC Serratia marcescens ATCC 13880 ([4]; Table 4, Gram −): 70.4 µM (≈ 128 µg/mL)
MIC Enterococcus faecalis ATCC 29212 ([5]; Table 4, Gram +): 2.2 µM
MIC Proteus vulgaris ATCC 49132 ([6]; Table 4, Gram −): 17.6 µM (≈ 32 µg/mL)
MIC Proteus mirabilis ATCC 35659 ([7]; Table 4, Gram −): >70.4 µM
MIC P. mirabilis ATCC 35659 ([7]; Table 7A): >128 µg/mL
MIC Staphylococcus aureus VAN1 ([8]; Table 4, vancomycin resistant): 2.2 µM (≈ 4 µg/mL)
MIC Staphylococcus aureus VAN2 ([9]; Table 4, vancomycin resistant): 2.2 µM (≈ 4 µg/mL)
MIC Pseudomonas aeruginosa ATCC 27853 ([10]; Table 4, Gram −): 4.4 µM (≈ 8.01 µg/mL)
MIC Klebsiella pneumoniae ATCC 33495 ([11]; Table 4, Gram −): 8.8 µM (≈ 16 µg/mL)
MIC Enterobacter aerogenes ATCC 35029 ([12]; Table 4, Gram −): 8.8 µM (≈ 16 µg/mL)
MIC Enterococcus faecium 106 (Enterococcus faecium 106; Table 4, vancomycin resistant): 2.2 µM (≈ 4 µg/mL)
MIC Staphylococcus aureus ATCC 29213 ([13]; Table 4, Gram +): 2.2 µM
MIC Staphylococcus aureus NRS119 ([14]; Table 4, Gram +): 2.2 µM
